Data from patent publication US7772241B2, “Variolin derivatives and their use as antitumor agents” (Pharma Mar S.A., priority 2001, dated 2010).
Where two headings read alike, the source gives them in different places.

What was measured:
[1] = tested on: SK-MEL-28; assay: Inhibition of cells growth by colorimetric (SRB) assay, SK-MEL-28; settings: for GI50 / CC50: Homo sapiens, SK-MEL-28, 48 h; for GI50: read-out: GI50 MEL-28, SRB assay, 48 hours exposure; for TGI MEL-28: SRB assay, 48 hours exposure
Method in brief: (§1)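 Human tumour cells in RPMI 1640 with 10% FBS were seeded at 5×10^3 cells/well, allowed to attach for 18 h, then exposed to samples at 10 to 10^−8 μg/ml for 48 h. Growth was measured by SRB staining after TCA fixation, with absorbance read at 490 nm in triplicate wells.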

[2] = tested on: SK-OV-3; assay: Inhibition of cells growth by colorimetric (SRB) assay, SK-OV-3; settings: for GI50 / CC50: Homo sapiens, SK-OV-3, 48 h; for GI50: read-out: GI50 SKOV-3, SRB assay, 48 hours exposure; for TGI SKOV-3: SRB assay, 48 hours exposure
Method in brief: as §1

[3] = Inhibition of cells growth by colorimetric (SRB) assay, HMEC1
[4] = tested on: HMEC1; assay: as above; settings: for GI50: Homo sapiens, HMEC-1, 48 h, read-out: GI50 H-MEC-1, SRB assay, 48 hours exposure; for TGI H-MEC-1: SRB assay, 48 hours exposure
[5] = tested on: IGROV-1; assay: Inhibition of cells growth by colorimetric (SRB) assay, IGROV-1; settings: for GI50 / CC50: Homo sapiens, IGROV-1, 48 h; for GI50: read-out: GI50 IGROV, SRB assay, 48 hours exposure; for TGI IGROV: SRB assay, 48 hours exposure
Method in brief: as §1

[6] = tested on: SK-BR-3; assay: Inhibition of cells growth by colorimetric (SRB) assay, SK-BR-3; settings: for GI50 / CC50: Homo sapiens, SK-BR-3, 48 h; for GI50: read-out: GI50 SK-BR-3, SRB assay, 48 hours exposure; for TGI SK-BR-3: SRB assay, 48 hours exposure
Method in brief: as §1

[7] = tested on: K-562; assay: Inhibition of cells growth by colorimetric (SRB) assay, K-562; settings: for GI50 / CC50: Homo sapiens, K562, 48 h; for GI50: read-out: GI50 K-562, SRB assay, 48 hours exposure; for TGI K-562: SRB assay, 48 hours exposure
Method in brief: as §1

[8] = tested on: LNCaP; assay: Inhibition of cells growth by colorimetric (SRB) assay, LNCaP; settings: for GI50 / CC50: Homo sapiens, LNCaP, 48 h; for GI50: read-out: GI50 LN-caP, SRB assay, 48 hours exposure; for TGI LN-caP: SRB assay, 48 hours exposure
Method in brief: as §1

[9] = tested on: DU-145; assay: Inhibition of cells growth by colorimetric (SRB) assay, DU-145; settings: for GI50 / CC50: Homo sapiens, DU-145, 48 h; for GI50: read-out: GI50 DU-145, SRB assay, 48 hours exposure; for TGI DU-145: SRB assay, 48 hours exposure
Method in brief: as §1

[10] = tested on: PANC-1; assay: Inhibition of cells growth by colorimetric (SRB) assay, PANC-1; settings: for GI50: read-out: GI50 PANC-1, SRB assay, 48 hours exposure
Method in brief: as §1

[11] = tested on: IGROV-ET; assay: Inhibition of cells growth by colorimetric (SRB) assay, IGROV-ET; settings: for GI50 / CC50: Homo sapiens, 48 h; for GI50: read-out: GI50 IGROV-ET, SRB assay, 48 hours exposure; for TGI IGROV-ET: SRB assay, 48 hours exposure
Method in brief: as §1

[12] = tested on: A-549; assay: Inhibition of cells growth by colorimetric (SRB) assay, A-549; settings: for GI50 / CC50: Homo sapiens, A549, 48 h; for GI50: read-out: GI50 A-549, SRB assay, 48 hours exposure; for TGI A-549: SRB assay, 48 hours exposure
Method in brief: as §1

[13] = tested on: LoVo; assay: Inhibition of cells growth by colorimetric (SRB) assay, LoVo
Method in brief: as §1

[14] = tested on: LoVo-Dox; assay: Inhibition of cells growth by colorimetric (SRB) assay, LoVo-Dox
Method in brief: as §1

[15] = tested on: HT-29; assay: Inhibition of cells growth by colorimetric (SRB) assay, HT-29
Method in brief: as §1

[16] = read-out: LC50 MEL-28, SRB assay, 48 hours exposure
[17] = human, HMEC1 cells, LC50 H-MEC-1, SRB assay, 48 hours exposure
[18] = read-out: LC50 IGROV, SRB assay, 48 hours exposure
[19] = read-out: LC50 SK-BR-3, SRB assay, 48 hours exposure
[20] = read-out: LC50 K-562, SRB assay, 48 hours exposure
[21] = read-out: LC50 LN-caP, SRB assay, 48 hours exposure
[22] = read-out: LC50 DU-145, SRB assay, 48 hours exposure
[23] = read-out: LC50 IGROV-ET, SRB assay, 48 hours exposure
[24] = read-out: LC50 A-549, SRB assay, 48 hours exposure

Row | SMILES | GI50 [1] | CC50 [1, 16] | TGI MEL-28 [1] | GI50 [2] | GI50 [4] | GI50 [5] | TGI IGROV [5] | GI50 [6] | TGI SK-BR-3 [6] | GI50 [7] | TGI K-562 [7] | GI50 [8] | TGI LN-caP [8] | GI50 [9] | TGI DU-145 [9] | GI50 ([10]; Homo sapiens, PANC-1, 48 h) | GI50 [11] | TGI IGROV-ET [11] | GI50 [12] | TGI A-549 [12] | other results
1 | COc1nccc(-c2c3c(Cl)ccnc3n3c(N)nccc23)n1 [Compound 112] | 0.321 µM | 16.6 µM | 5.29E−06 | 0.989 µM | 1.27 µM | 1.65 µM | 7.59E−06 | 2.01 µM | 7.13E−06 | 1.4 µM | 8.66E−06 | 0.872 µM | 1.51E−06 | 0.716 µM | 1.72E−06 | 6.34 µM | 7.65 µM | 1.91E−05 | 1.38 µM | 4.35E−06 | CC50 ([2]; read-out: LC50 SKOV-3, SRB assay, 48 hours exposure): 30.6 µM; TGI SKOV-3 [2]: 2.30E−06; CC50 at 48 h [3, 17]: 11.9 µM; TGI H-MEC-1 ([4]; in M (unit assumed)): 4.71E−06; CC50 [5, 18]: 30.6 µM; CC50 [6, 19]: 27.8 µM; CC50 [7, 20]: 30.6 µM; CC50 [8, 21]: 2.62 µM; CC50 [9, 22]: 3.06 µM; CC50 [11, 23]: 30.6 µM; CC50 [12, 24]: 30.6 µM
2 | Nc1nccc(-c2c3c(F)ccnc3n3c(N)nccc23)n1 [Compound 115] | 1.12 µM | 12.1 µM | 4.13E−06 | – | 0.599 µM | 1.23 µM | 5.22E−06 | 0.752 µM | 1.69E−06 | 4.47 µM | 1.13E−05 | 0.721 µM | 1.30E−06 | 0.759 µM | 1.79E−06 | 2.05 µM | 1.47 µM | 6.84E−06 | 0.748 µM | 1.97E−06 | CC50 at 48 h [3, 17]: 5.96 µM; TGI H-MEC-1 ([4]; in M (unit assumed)): 1.56E−06; GI50 ([13]; Homo sapiens, LoVo, 48 h, read-out: GI50 LOVO, SRB assay, 48 hours exposure): 0.894 µM; CC50 ([13]; Homo sapiens, LoVo, 48 h, read-out: LC50 LOVO, SRB assay, 48 hours exposure): ≥ 33.9 µM; TGI LOVO ([13]; SRB assay, 48 hours exposure): 1.91E−06; GI50 ([14]; Homo sapiens, 48 h, read-out: GI50 LOVO-DOX, SRB assay, 48 hours exposure): 1.39 µM; CC50 ([14]; Homo sapiens, 48 h, read-out: LC50 LOVO-DOX, SRB assay, 48 hours exposure): ≥ 33.9 µM; TGI LOVO-DOX ([14]; SRB assay, 48 hours exposure): 5.76E−06; CC50 [5, 18]: ≥ 33.9 µM; CC50 [6, 19]: 6.23 µM; CC50 [7, 20]: 28.9 µM; CC50 [8, 21]: 2.34 µM; CC50 [9, 22]: 10.7 µM; CC50 ([10]; Homo sapiens, PANC-1, 48 h, read-out: LC50 PANC-1, SRB assay, 48 hours exposure): ≥ 33.9 µM; TGI PANC-1 ([10]; SRB assay, 48 hours exposure): 9.35E−06; GI50 ([15]; Homo sapiens, HT-29, 48 h, read-out: GI50 HT-29, SRB assay, 48 hours exposure): 2.15 µM; CC50 ([15]; Homo sapiens, HT-29, 48 h, read-out: LC50 HT-29, SRB assay, 48 hours exposure): ≥ 33.9 µM; TGI HT-29 ([15]; SRB assay, 48 hours exposure): 1.31E−05; CC50 [11, 23]: ≥ 33.9 µM; CC50 [12, 24]: ≥ 33.9 µM
3 | Nc1nccc(-c2c3c(O)ccnc3n3c(N)nccc23)n1 [Variolin B1, variolin B, reference compound] | 1.2 µM | – | 2.13E−06 | 1.21 µM | 0.273 µM | 1.14 µM | 2.90E−06 | 0.848 µM | 2.31E−06 | 1.55 µM | 3.92E−06 | 0.0539 µM | 2.10E−06 | 0.893 µM | 2.10E−06 | 1.68 µM | 1.28 µM | 2.82E−06 | 0.985 µM | 2.21E−06 | CC50 ([1]; read-out: LC50 MEL-28): 2.8 µM; CC50 ([2]; read-out: LC50 SKOV-3): 34.1 µM; TGI SKOV-3 [2]: 3.32E−06; CC50 at 48 h [3]: 6.07 µM; TGI H-MEC-1 [4]: 7.50E−07; CC50 ([5]; read-out: LC50 IGROV): 34.1 µM; CC50 ([6]; read-out: LC50 SK-BR-3): 27.7 µM; CC50 ([7]; read-out: LC50 K-562): 34.1 µM; CC50 ([8]; read-out: LC50 LN-caP): 1.41 µM; CC50 ([9]; read-out: LC50 DU-145): 19.9 µM; CC50 ([11]; read-out: LC50 IGROV-ET): 34.1 µM; CC50 ([12]; read-out: LC50 A-549): 3.41 µM
